Each structure is given as a SMILES string.

The text below walks through data of patent publication US9572788B2, “Cell permeable inhibitors of anaphase promoting complex” (President and Fellows of Harvard College, priority 2014, dated 2017).

The subject of one experiment is HeLa H2B-GFP cells. Put plainly: Chromosome congression analysis. Type of experiment: cell-based, human. The settings on record: for Congression delay: 10 nM nocodazole or 12 μM proTAME; for Average chromosome congression time / Median chromosome congression time: Fig S4C. The protocol: HeLa H2B-GFP cells were plated in 35 mm glass-bottom dishes (MatTek) in DMEM+10% FBS at 20% confluence one day prior to the experiment and synchronized by double thymidine block as described above. Drugs were added as follows to a final volume of 3 ml from 2× concentrated preparation in culture medium. DMSO (0.06%), proTAME (3 and 12 μM) or 10 nM Nocodazole were added 8 h after release from the second block, while MG132 (10 μM) was added at 10 h. H2B-GFP was imaged for 4 hrs every 3 min at 40× magnification as described above.

A further experiment has as its system HeLa H2B-RFP cells. Put plainly: Exogenous cyclin-GFP expression, live-cell imaging and quantitation. Type of experiment: cell-based, human. As to conditions: Fig 5D; GFP at 60 min vs onset of mitosis; 20 μM proTAME or proAAME, 150 nM nocodazole. The procedure: HeLa H2B-RFP cells were transduced with cyclin B1-GFP or cyclin A2-GFP adenovirus for 40 h. Phenol Red-Free DMEM (Mediatech) supplemented with 10% FBS and 1:100 Penicillin-Streptomycin-Glutamine (Mediatech) was used as imaging medium. 20 μM proAAME, 20 μM proTAME or 150 nM nocodazole was added 45 min prior to the start of imaging. Live cell imaging was set up as described above except that the cells were plated in an 8-well chambered coverglasses (NUNC Lab-tek 155411). Four positions per treatment group were imaged with DIC transmitted light, red fluorescence, and green fluorescence (Semrock GFP/HcRed “Pinkel” filter set) at 12 min intervals for 24 h. Stacks of red and green fluorescence were merged, saved as AVI video files and analyzed using ImageJ. For quantitation, the first GFP-positive cells that undergo mitosis in three separate movies were chosen, giving at least 30 cells quantitated for each treatment group. Mean intensity values for the green channel were collected for a cytoplasmic region of a cell upon mitotic entry, mitotic exit, or after 1 h of mitotic arrest. At the same time points, background mean green intensity was determined and individually subtracted from the cytoplasmic mean intensity. This background corrected mean intensity value was then used to determine the percentage of the original GFP signal remaining at the completion of division (for the control cells) or after 1 h of mitotic arrest (for the nocodazole and proTAME treated cells). The average values for all quantitated cells were plotted with the error bars representing standard error of the mean.

Setting [1] is: proTAME 12 μM, MG132 10 μM, nocodazole 10 nM.

For the molecule `COC(=O)Nc1nc2ccc(C(=O)c3cccs3)cc2[nH]1` [Nocodazole, reference compound], the Congression delay in the experiment with HeLa H2B-GFP cells worked out at 6 min. In addition, in the experiment on HeLa H2B-GFP cells (setting [1]), the “Average chromosome congression time” value was 26.2 min and the “Median chromosome congression time” value was 24 min. In the experiment with HeLa H2B-RFP cells, the “Average cyclin A2-GFP (fraction remaining)” value came out at 0.28 fraction remaining, the “Average cyclin B1-GFP (fraction remaining)” value came out at 0.87 fraction remaining, the “Median cyclin A2-GFP (fraction remaining)” value was found to be 0.28 fraction remaining and the “Median cyclin B1-GFP (fraction remaining)” value was found to be 0.83 fraction remaining.

Consider `COC(=O)[C@H](CCCN/C(=N\C(=O)OCOC(=O)Cc1ccccc1)NC(=O)OCOC(=O)Cc1ccccc1)NS(=O)(=O)c1ccc(C)cc1` [proTAME], for which the Congression delay in the experiment with HeLa H2B-GFP cells was 6 min. The “Delay in chromosome congression” value in the experiment with HeLa H2B-GFP cells (3 μM proTAME or 10 μM MG132) is reported as “caused no delay in chromosome congression”. Besides, in the experiment with HeLa H2B-GFP cells (Example 2, 12 (μM) proTAME, 15 minutes for DMSO), the “Time to achieve metaphase, average” value is 40 min. In the experiment with HeLa H2B-GFP cells (proTAME 3 μM), the “Average chromosome congression time” value turned out to be 21.7 min and the “Median chromosome congression time” value turned out to be 21 min. For the same molecule, in the experiment with HeLa H2B-GFP cells (setting [1]), the “Average chromosome congression time” value worked out at 26.0 min and the “Median chromosome congression time” value is recorded as 24 min. Further, in the experiment on HeLa H2B-RFP cells, the “Average cyclin A2-GFP (fraction remaining)” value was 0.99 fraction remaining, the “Average cyclin B1-GFP (fraction remaining)” value is reported as 1.17 fraction remaining, the “Median cyclin A2-GFP (fraction remaining)” value was determined as 0.95 fraction remaining and the “Median cyclin B1-GFP (fraction remaining)” value was 1.17 fraction remaining.
